According to paper PMC12055641, “The Study of Antistaphylococcal Potential of Omiganan and Retro-Omiganan Under Flow Conditions” (Probiotics and Antimicrobial Proteins, 2024):
In brackets after ≈: the same amount, converted by molar mass.

Legend:
[1] = tested on: S. aureus ATCC 25923; assay: microbe, parasite or virus in culture
Source text: (§1) Clinical S. aureus strains were collected from patients with atopic dermatitis during their visits to the Outpatient Clinic and hospitalization in the Department of Dermatology, Venereology and Allergology at Medical University of Gdańsk (following the approval from the ethics committee, Approval Number NKBBN/242–477/2014). Reference strains of S. aureus ATCC 25923, S. aureus ATCC 33591, S. aureus ATCC 9144, and S. aureus ATCC 12598 were obtained from the American Type Culture Collection. All the strains were stored at − 80 °C in Roti®-Store cryo vials (Carl Roth GmbH, Karlsruhe, Germany) and before the tests were transferred into fresh Mueller–Hinton Medium (BioMaxima, Lublin, Poland) and incubated for 24 h at 37 °C. Subsequently, each bacterial inoculum was seeded on Mueller–Hinton agar plates (BioMaxima) and incubated again for 24 h. The cultures prepared in this way were used in further antimicrobial assays. Minimum inhibitory concentrations (MICs) were determined according to the Clinical and Laboratory Standards Institute recommendations. […] The experiments were conducted on 96-well microtiter plates, with a final volume of 100 μL. Additionally, in the case of daptomycin, the medium was supplemented with Ca^2+ (50 mg/L). Cell densities were adjusted spectrophotometrically (Multiskan™ GO Microplate Spectrophotometer, Thermo Scientific) at 600 nm. The MICs were taken as the lowest drug concentration at which a visible growth of the microorganisms was inhibited. Minimum biofilm eliminating concentrations (MBECs) were determined on 96-well flat-bottomed microtiter polystyrene plates with resazurin (7-hydroxy-3H-phenoxazin-3-one 10-oxide sodium salt) as a cell viability reagent. To do this, the plates were filled with 100 μL of the initial inoculums of bacteria (0.5 × 10^7 CFU/mL) in the Mueller–Hinton broth and incubated for 24 h at 37 °C. […] After 24 h of incubation, 20 μL of resazurin (4 mg/mL) was added to each well and the MBEC values were read. Minimum biofilm inhibitory concentrations (MBICs) were also determined on 96-well flat-bottomed microtiter polystyrene plates as described previously. To do this, 50 μL of the compounds in the concentration range, diluted MHB, were prepared. Subsequently, the 50 μL of the staphylococcal inoculums were added to reach the same density of bacteria as that in the MBEC assay. After 24 h of incubation at 37 °C, the wells were rinsed three times with PBS and the fresh medium (100 μL) with resazurin (0.6 mg/mL) was added. Then, after 1 h of incubation, MBICs were read. […] All experiments were conducted in triplicate.
(§2) Formation of the biofilm inside the PDMS flow chambers was performed using three peristaltic pumps working simultaneously (LP-pump, Kamush, Lipopharm, Poland) and sterile Tygon® 3350 silicone hoses (2.4 × 0.8 × 0.8 mm) with a length of 30 and 50 cm for inlet and outlet, respectively. Bacterial suspensions were prepared (0.5 × 10^7 CFU/mL) in sterile 50-mL test tubes, which were placed in a heating block at 37 °C. Before experiments, all channels were assessed for tightness and sterilized using a 70% 2-propanol solution (10 min, flow rate 1 mL/min) and rinsed with sterile PBS solution (10 min, flow 0.1 mL/min). The formation of biofilm inside the channels was divided into three stages: (1) adhesion—at this stage S. aureus suspensions were passed through the channels for 4 h at a flow rate of 0.1 mL/min; (2) rinsing—the previously used hoses were replaced with new sterile ones, and the channels were rinsed with sterile PBS solution for 10 min at a flow rate of 0.1 mL/min; (3) biofilm growth—after flushing the channels, the silicone hoses were placed in tubes with MHB medium, which was passed through the channels for 24 h at a flow rate of 0.1 mL/min. All experiments included growth and sterility controls.
(§3) This assay was conducted also on the S. aureus ATCC 25923 and S. aureus 33,591 (MRSA) strains.

[2] = tested on: S. aureus ATCC 33591 (MRSA); assay: microbe, parasite or virus in culture
Source text: as §1, §2, §3

[3] = tested on: S. aureus clinical strain 004N (MRSA); set-up: method as in earlier work; conditions: clinical isolate 004N (MRSA), nasal swab; cited from earlier work
[4] = tested on: S. aureus clinical strain 005S; set-up: method as in earlier work; conditions: clinical isolate 005S, skin; cited from earlier work
[5] = tested on: S. aureus clinical strain 009S; set-up: method as in earlier work; conditions: clinical isolate 009S, skin; cited from earlier work
[6] = tested on: S. aureus clinical strain 015N (MRSA); set-up: method as in earlier work; conditions: clinical isolate 015N (MRSA), nasal swab; cited from earlier work
[7] = tested on: S. aureus clinical strain 030N; set-up: method as in earlier work; conditions: clinical isolate 030N, nasal swab; cited from earlier work
[8] = tested on: S. aureus clinical strain 031S; set-up: method as in earlier work; conditions: clinical isolate 031S, skin; cited from earlier work
[9] = tested on: S. aureus clinical strain 043SC (MRSA); set-up: method as in earlier work; conditions: clinical isolate 043SC (MRSA), skin of patient with furuncle folliculitis; cited from earlier work
[10] = tested on: S. aureus clinical strain 051N (MRSA); set-up: method as in earlier work; conditions: clinical isolate 051N (MRSA), nasal swab; cited from earlier work
[11] = tested on: S. aureus clinical strain 060S; set-up: method as in earlier work; conditions: clinical isolate 060S, skin; cited from earlier work
[12] = S. aureus 25923 biofilm treated under flow with Retro-Omiganan (half MBEC) for 24 h
[13] = S. aureus 25923 biofilm treated under flow with Retro-Omiganan (half MBEC) for 48 h
[14] = S. aureus 25923 biofilm treated under flow with Retro-Omiganan (half MBEC) for 72 h
[15] = Staphylococcus aureus, ATCC25923, 0 h
[16] = Staphylococcus aureus, ATCC25923, 24 h
[17] = Staphylococcus aureus, ATCC25923, 48 h
[18] = Staphylococcus aureus, ATCC25923, 72 h
[19] = S. aureus ATCC 33591 (MRSA) biofilm treated under flow with Retro-Omiganan (half MBEC) for 24 h
[20] = S. aureus ATCC 33591 (MRSA) biofilm treated under flow with Retro-Omiganan (half MBEC) for 48 h
[21] = S. aureus ATCC 33591 (MRSA) biofilm treated under flow with Retro-Omiganan (half MBEC) for 72 h
[22] = Staphylococcus aureus, ATCC25923, 0 h, S. aureus 25923, time 0 h (baseline, before peptide exposure)
[23] = Staphylococcus aureus, ATCC25923, 24 h, S. aureus 25923 biofilm treated under flow with Omiganan (half MBEC) for 24 h
[24] = Staphylococcus aureus, ATCC25923, 24 h, S. aureus 25923 biofilm treated under flow with Retro-Omiganan (half MBEC) for 24 h
[25] = Staphylococcus aureus, ATCC25923, 48 h, S. aureus 25923 biofilm treated under flow with Omiganan (half MBEC) for 48 h
[26] = Staphylococcus aureus, ATCC25923, 48 h, S. aureus 25923 biofilm treated under flow with Retro-Omiganan (half MBEC) for 48 h
[27] = Staphylococcus aureus, ATCC25923, 72 h, S. aureus 25923 biofilm treated under flow with Omiganan (half MBEC) for 72 h
[28] = Staphylococcus aureus, ATCC25923, 72 h, S. aureus 25923 biofilm treated under flow with Retro-Omiganan (half MBEC) for 72 h
[29] = Staphylococcus aureus, ATCC33591|MRSA, 0 h, S. aureus ATCC 33591 (MRSA), time 0 h (baseline, before peptide exposure)
[30] = Staphylococcus aureus, ATCC33591|MRSA, 24 h, S. aureus ATCC 33591 (MRSA) biofilm treated under flow with Omiganan (half MBEC) for 24 h
[31] = Staphylococcus aureus, ATCC33591|MRSA, 24 h, S. aureus ATCC 33591 (MRSA) biofilm treated under flow with Retro-Omiganan (half MBEC) for 24 h
[32] = Staphylococcus aureus, ATCC33591|MRSA, 48 h, S. aureus ATCC 33591 (MRSA) biofilm treated under flow with Omiganan (half MBEC) for 48 h
[33] = Staphylococcus aureus, ATCC33591|MRSA, 48 h, S. aureus ATCC 33591 (MRSA) biofilm treated under flow with Retro-Omiganan (half MBEC) for 48 h
[34] = Staphylococcus aureus, ATCC33591|MRSA, 72 h, S. aureus ATCC 33591 (MRSA) biofilm treated under flow with Omiganan (half MBEC) for 72 h
[35] = Staphylococcus aureus, ATCC33591|MRSA, 72 h, S. aureus ATCC 33591 (MRSA) biofilm treated under flow with Retro-Omiganan (half MBEC) for 72 h

Compound | MIC [1, 12] [µg/mL] | MIC [1, 13] [µg/mL] | MIC [1, 14] [µg/mL] | MIC [1, 15] [µg/mL] | MIC [1, 16] [µg/mL] | MIC [1, 17] [µg/mL] | MIC [1, 18] [µg/mL] | MIC [2, 19] [µg/mL] | MIC [2, 20] [µg/mL] | MIC [2, 21] [µg/mL] | MIC ([2]; Staphylococcus aureus, 0 h) [µg/mL] | Antimicrobial susceptibility (MIC) [3] [µg/mL] | Antimicrobial susceptibility (MIC) [4] [µg/mL] | Antimicrobial susceptibility (MIC) [5] [µg/mL] | Antimicrobial susceptibility (MIC) [6] [µg/mL] | Antimicrobial susceptibility (MIC) [7] [µg/mL] | Antimicrobial susceptibility (MIC) [8] [µg/mL] | Antimicrobial susceptibility (MIC) [9] [µg/mL] | Antimicrobial susceptibility (MIC) [10] [µg/mL] | Antimicrobial susceptibility (MIC) [11] [µg/mL] | further results
CCC[C@@H]1C[C@@H](C(=O)N[C@@H]([C@H]2O[C@H](SC)[C@H](O)[C@@H](O)[C@H]2O)[C@@H](C)O)N(C)C1 [Lincomycin] | 1.0 (≈ 2.46 µM) | 1.0 (≈ 2.46 µM) | 1.0 (≈ 2.46 µM) | 1 (≈ 2.46 µM) | 1 (≈ 2.46 µM) | 1 (≈ 2.46 µM) | 1 (≈ 2.46 µM) | > 128 | > 128 | > 128 | > 128 | 1 | 1 | 0.25 | 1 | 0.5 | 0.5 | > 512 | 1 | 0.5 | MIC ([2]; Staphylococcus aureus, 24 h): > 128 µg/mL; MIC ([2]; Staphylococcus aureus, 48 h): > 128 µg/mL; MIC ([2]; Staphylococcus aureus, 72 h): > 128 µg/mL
CC(=O)NC[C@H]1CN(c2ccc(N3CCOCC3)c(F)c2)C(=O)O1 [Linezolid] | 1.0 (≈ 2.96 µM) | 1.0 (≈ 2.96 µM) | 1.0 (≈ 2.96 µM) | 1 (≈ 2.96 µM) | 1 (≈ 2.96 µM) | 1 (≈ 2.96 µM) | 1 (≈ 2.96 µM) | 1.0 (≈ 2.96 µM) | 1.0 (≈ 2.96 µM) | 1.0 (≈ 2.96 µM) | 1 (≈ 2.96 µM) | 1 | 0.5 | 0.25 | 2 | 0.5 | 2 | 2 | 2 | 1 | MIC ([2]; Staphylococcus aureus, 24 h): 1 µg/mL (≈ 2.96 µM); MIC ([2]; Staphylococcus aureus, 48 h): 1 µg/mL (≈ 2.96 µM); MIC ([2]; Staphylococcus aureus, 72 h): 1 µg/mL (≈ 2.96 µM)
CN[C@H](CC(C)C)C(=O)N[C@H]1C(=O)N[C@@H](CC(N)=O)C(=O)N[C@H]2C(=O)N[C@H]3C(=O)N[C@H](C(=O)N[C@H](C(=O)O)c4cc(O)cc(O)c4-c4cc3ccc4O)[C@H](O)c3ccc(c(Cl)c3)Oc3cc2cc(c3O[C@@H]2O[C@H](CO)[C@@H](O)[C@H](O)[C@H]2O[C@H]2C[C@](C)(N)[C@H](O)[C@H](C)O2)Oc2ccc(cc2Cl)[C@H]1O [Vancomycin] | – | – | – | – | – | – | – | – | – | – | – | 0.5 | 0.125 | 0.25 | 1 | 2 | 0.25 | 0.5 | 0.5 | 0.5 | MIC [1, 22]: 1 µg/mL (≈ 0.69 µM); MIC [1, 23]: 1 µg/mL (≈ 0.69 µM); MIC [1, 24]: 1 µg/mL (≈ 0.69 µM); MIC [1, 25]: 1 µg/mL (≈ 0.69 µM); MIC [1, 26]: 1 µg/mL (≈ 0.69 µM); MIC [1, 27]: 1 µg/mL (≈ 0.69 µM); MIC [1, 28]: 1 µg/mL (≈ 0.69 µM); MIC [2, 29]: 1 µg/mL (≈ 0.69 µM); MIC [2, 30]: 1 µg/mL (≈ 0.69 µM); MIC [2, 31]: 1 µg/mL (≈ 0.69 µM); MIC [2, 32]: 1 µg/mL (≈ 0.69 µM); MIC [2, 33]: 1 µg/mL (≈ 0.69 µM); MIC [2, 34]: 1 µg/mL (≈ 0.69 µM); MIC [2, 35]: 1 µg/mL (≈ 0.69 µM)
CN(C)[C@@H]1C(O)=C(C(N)=O)C(=O)[C@@]2(O)C(O)=C3C(=O)c4c(O)cccc4[C@@](C)(O)[C@H]3C[C@@H]12 [Tetracycline] | – | – | – | – | – | – | – | – | – | – | – | 0.5 | 0.5 | 1 | 0.5 | 0.5 | 0.25 | 32 | 0.25 | 0.125 | MIC [1, 22]: ≤ 0.25 µg/mL; MIC [1, 23]: ≤ 0.25 µg/mL; MIC [1, 24]: ≤ 0.25 µg/mL; MIC [1, 25]: ≤ 0.25 µg/mL; MIC [1, 26]: ≤ 0.25 µg/mL; MIC [1, 27]: ≤ 0.25 µg/mL; MIC [1, 28]: ≤ 0.25 µg/mL; MIC [2, 29]: 64 µg/mL (≈ 144 µM); MIC [2, 30]: 64 µg/mL (≈ 144 µM); MIC [2, 31]: 64 µg/mL (≈ 144 µM); MIC [2, 32]: 64 µg/mL (≈ 144 µM); MIC [2, 33]: 64 µg/mL (≈ 144 µM); MIC [2, 34]: 64 µg/mL (≈ 144 µM); MIC [2, 35]: 64 µg/mL (≈ 144 µM)
